In PubChem BioAssay AID1259407 (Chemical Carcinogenesis Research Information System (CCRIS), 2018):
Activity calls are given as the source filed them. The rule behind the calls is not given here.

System: CCRIS mutagenicity, Ames/micronucleus/aberration tests
Assay: CCRIS mutagenicity studies

Measured: mutagenic call

COc1cc(-c2ccc(N/N=C3/C(=O)c4c(N)cc(S(=O)(=O)O)cc4C=C3S(=O)(=O)O)c(OC)c2)ccc1N/N=C1/C(=O)c2c(N)cc(S(=O)(=O)O)cc2C=C1S(=O)(=O)O
active: Test System: AMES SALMONELLA TYPHIMURIUM, Strain/Indicator: SV50, Metabolic Activation: HAMSTER, LIVER, S-9, Method: PREINCUBATION (PRIVAL METHOD) active; positive | Test System: AMES SALMONELLA TYPHIMURIUM, Strain/Indicator: SV50, Metabolic Activation: RAT, LIVER, S-9, AROCLOR 1254, Method: PREINCUBATION (PRIVAL METHOD) active; positive | Test System: AMES SALMONELLA TYPHIMURIUM, Strain/Indicator: TA98, Metabolic Activation: HAMSTER, LIVER, S-9, Method: PREINCUBATION (PRIVAL METHOD) active; positive | Test System: AMES SALMONELLA TYPHIMURIUM, Strain/Indicator: TA98, Metabolic Activation: RAT, LIVER, S-9, AROCLOR 1254, Method: PREINCUBATION (PRIVAL METHOD) active; positive | Test System: AMES SALMONELLA TYPHIMURIUM, Strain/Indicator: TA1538, Metabolic Activation: FLAVIN MONONUCLEOTIDE REDUCTION, HAMSTER, LIVER, S-9, Method: PREINCUBATION active; positive | Test System: AMES SALMONELLA TYPHIMURIUM, Strain/Indicator: TA1538, Metabolic Activation: RAT, CECAL BACTERIAL REDUCTION, S-9, AROCLOR 1254, Method: PREINCUBATION active; positive | Test System: AMES SALMONELLA TYPHIMURIUM, Strain/Indicator: TA1538, Metabolic Activation: RAT, LIVER, S-9, AROCLOR 1254, Method: PREINCUBATION active; positive | Test System: AMES SALMONELLA TYPHIMURIUM, Strain/Indicator: TA1538, Metabolic Activation: RAT, LIVER, S-9, AROCLOR 1254, Method: STANDARD PLATE active; positive
inactive: End Point: IN VITRO CHROMOSOMAL ABERRATIONS, Test System: CHINESE HAMSTER OVARY CELLS, Metabolic Activation: NONE inactive; negative | End Point: IN VITRO CHROMOSOMAL ABERRATIONS, Test System: CHINESE HAMSTER OVARY CELLS, Metabolic Activation: RAT, LIVER, S-9, AROCLOR 1254 inactive; negative | Test System: AMES SALMONELLA TYPHIMURIUM, Strain/Indicator: TA98, Metabolic Activation: HAMSTER, LIVER, S-9, AROCLOR 1254 (10%), Method: PREINCUBATION inactive; negative | Test System: AMES SALMONELLA TYPHIMURIUM, Strain/Indicator: TA98, Metabolic Activation: NONE, Method: PREINCUBATION inactive; negative | Test System: AMES SALMONELLA TYPHIMURIUM, Strain/Indicator: TA98, Metabolic Activation: RAT, LIVER, S-9, AROCLOR 1254 (10%), Method: PREINCUBATION inactive; negative | Test System: AMES SALMONELLA TYPHIMURIUM, Strain/Indicator: TA100, Metabolic Activation: HAMSTER, LIVER, S-9, AROCLOR 1254 (10%), Method: PREINCUBATION inactive; negative | Test System: AMES SALMONELLA TYPHIMURIUM, Strain/Indicator: TA100, Metabolic Activation: NONE, Method: PREINCUBATION inactive; negative | Test System: AMES SALMONELLA TYPHIMURIUM, Strain/Indicator: TA100, Metabolic Activation: RAT, LIVER, S-9, AROCLOR 1254 (10%), Method: PREINCUBATION inactive; negative | Test System: AMES SALMONELLA TYPHIMURIUM, Strain/Indicator: TA1535, Metabolic Activation: HAMSTER, LIVER, S-9, AROCLOR 1254 (10%), Method: PREINCUBATION inactive; negative | Test System: AMES SALMONELLA TYPHIMURIUM, Strain/Indicator: TA1535, Metabolic Activation: NONE, Method: PREINCUBATION inactive; negative | Test System: AMES SALMONELLA TYPHIMURIUM, Strain/Indicator: TA1535, Metabolic Activation: RAT, LIVER, S-9, AROCLOR 1254 (10%), Method: PREINCUBATION inactive; negative | Test System: AMES SALMONELLA TYPHIMURIUM, Strain/Indicator: TA1537, Metabolic Activation: HAMSTER, LIVER, S-9, AROCLOR 1254 (10%), Method: PREINCUBATION inactive; negative | Test System: AMES SALMONELLA TYPHIMURIUM, Strain/Indicator: TA1537, Metabolic Activation: NONE, Method: PREINCUBATION inactive; negative | Test System: AMES SALMONELLA TYPHIMURIUM, Strain/Indicator: TA1537, Metabolic Activation: RAT, LIVER, S-9, AROCLOR 1254 (10%), Method: PREINCUBATION inactive; negative

COc1c2ccccc2[n+]([O-])c2occc12
inactive: Test System: AMES SALMONELLA TYPHIMURIUM, Strain/Indicator: TA98, Metabolic Activation: NONE, Method: STANDARD PLATE inactive; negative | Test System: AMES SALMONELLA TYPHIMURIUM, Strain/Indicator: TA98, Metabolic Activation: RAT LIVER S-9, PHENOBARTITAL, Method: STANDARD PLATE inactive; negative
